Test results as given in US20030181436A1, “Treatment for AIDS, HIV, and other related diseases and compounds for use therewith” (priority 2001, published 2003).

Assays:
Type in all cases: cell-based
[1] = test system: TNFα induced ACH-2 cells (HIV IIIB provirus); assay: ACH-2 latent infection assay, supernatant reverse transcriptase activity
Method: (§1) U1 and ACH-2 cells were obtained from the AIDS Research and Reference Reagent Program and maintained under standard culture conditions in RPMI 1640 supplemented with 10% fetal bovine serum (heat inactivated), supplemented with 2 mM […], 100U/ml penicillin and 100 μg/ml, streptomycin. U1 cells were derived from the histocytic leukemia cell line U937, and contain a single integrated copy (HIV IIIB) […] a cytokine and/or phorbol inducible provirus. ACH-2 cells are derived from the A3.01 T lymphoblastic cell line, and contain 2 copies of the HIV IIIB provirus, however only one is cytokine and/or phorbol inducible. Cultures were maintained in such a way as to ensure exponential growth of the populations. At the time of the assay, cells were collected by centrifugation and counted by hemacytometer. If cell viability by Trypan Blue dye exclusion was less than 70% the assay was terminated. The cells were adjusted to 5×10^4 cells/mL and 100 μL, placed in 96 well plates with 100 μL media containing a final concentration of […] TNFα and the test compound. Cultures were incubated for 3 days and supernatants harvested. Compound toxicity was determined by MTS dye reduction. Virus expression was measured by supernatant reverse transcriptasc activity.
Reverse transcriptase activity was measured in cell-free supernatants. Tritiated thymidine triphosphate (NEN) (TTP) was resuspended in distilled H2O at 5 Ci/mL. Poly rA and oligo dT were prepared as a stock solution which was kept at −20° C. The RT reaction buffer was prepared fresh on a daily basis and consists of 125 μL 1.0 M EGTA, 125 μL dH2O, 110 μL 10% SDS, 50 μL 1.0 M Tris (pH 7.4), 50 μL, 1.0 M DTT, and 40 μL 1.0 M MgCl2. These three solutions were mixed together in a ratio of 2 parts TTP, 1 part poly rA:oligo dT, and 1 part reaction buffer. Ten microliters of this reaction mixture was placed in a round bottom microtiter plate and 15 μL of virus containing supernatant was added and mixed. The plate was incubated at 37° C. in a water bath with a solid support to prevent submersion of the plate and incubated for 60 minutes. Following reaction, the reaction volume was spotted onto pieces of DE81 paper, washed 5 times for 5 minutes each in a 5% sodium phosphate buffer, 2 times for 1 minute each in distilled water, 2 times for 1 minute each in 70% ethanol, and then dried. Opti-Fluor O was added to each sample and incorporated radioactivity was quantitated utilizing a Wallac 1450 Microbetaplus liquid scintillation counter.

ACH-2 cells = assay: ACH-2 assay, compound toxicity by MTS dye reduction; parameters: Y. CC / 9′. CC: unit not given here
Method: At assay termination the assay plates were stained with the soluble tetrazolium-based dye MTS (CellTiter® Reagent, Promega) to determined cell viability and quantify compound toxicity. […] At termination of the assay 20 μL of MTS reagent was added per well. The wells were incubated for 4 h at 37° C., 5% CO2. Adhesive plate scalers were used in place of the lids, the sealed plate was inverted several times to mix the soluble formazan product and the plate was read spectrophotometrically at 490 nm with a 650 nm reference wavelength on a Molecular Devices Vmax plate reader.
as §1

HIV = assay: HeLa CD4 LTR β-gal time of addition assay; conditions: single round, high M.O.I.
Text: This time of addition assay measures reproducible events from initial virus binding to the trans activation of the β-galactosidase reporter by newly produced Tat protein. This is a single round of infection assay and is thus “cleaner” and more “precise” than a multi-round time of addition assay. […] Since it is hypothesized that the K and Z compounds work by interfering with virus transcription the later possibility seems more likely. Thus the use of a time of addition assay with PBMCs was utilized.

Substance: Zinc Iodiscorbate [Compound Z]
- activity in the ACH-2 assay [1]: inactive
- % VC ([1]; 0.00063 μg/ml, exp 2): 96.4%
- RT ACTIVITY MEAN ([1]; 0.00063 μg/ml, exp 2): 18594 cpm
- % VC ([1]; 0.002 μg/ml, exp 2): 106.4%
- RT ACTIVITY MEAN ([1]; 0.002 μg/ml, exp 2): 20516 cpm
- % VC ([1]; 0.00625 μg/ml, exp 2): 100.6%
- RT ACTIVITY MEAN ([1]; 0.00625 μg/ml, exp 2): 19411 cpm
- % VC ([1]; 0.02 μg/ml, exp 2): 116.0%
- RT ACTIVITY MEAN ([1]; 0.02 μg/ml, exp 2): 22382 cpm
- % VC ([1]; 0.0625 μg/ml, exp 2): 111.6%
- RT ACTIVITY MEAN ([1]; 0.0625 μg/ml, exp 2): 21532 cpm
- % VC ([1]; 0.2 μg/ml, exp 2): 114.0%
- RT ACTIVITY MEAN ([1]; 0.2 μg/ml, exp 2): 21983 cpm
- % VC ([1]; 0.625 μg/ml, exp 2): 104.2%
- RT ACTIVITY MEAN ([1]; 0.625 μg/ml, exp 2): 20108 cpm
- % VC ([1]; 2 μg/ml, exp 2): 104.5%
- RT ACTIVITY MEAN ([1]; 2 μg/ml, exp 2): 20151 cpm
- % VC ([1]; 6.25 μg/ml, exp 2): 60.8%
- RT ACTIVITY MEAN ([1]; 6.25 μg/ml, exp 2): 11729 cpm
- % VC ([1]; 20 μg/ml, exp 2): 5.1%
- RT ACTIVITY MEAN ([1]; 20 μg/ml, exp 2): 982 cpm
- % VC ([1]; 62.5 μg/ml, exp 2): 0.83%
- RT ACTIVITY MEAN ([1]; 62.5 μg/ml, exp 2): 160 cpm
- % VC ([1]; 200 μg/ml, exp 2): 0.41%
- RT ACTIVITY MEAN ([1]; 200 μg/ml, exp 2): 80 cpm
- % VC ([1]; 0.00063 μG/Ml, exp 1): 107.6%
- RT ACTIVITY (cpm) MEAN ([1]; 0.00063 μG/Ml, exp 1): 71887 cpm
- % VC ([1]; 0.002 μG/Ml [c9], exp 1): 107.8%
- RT ACTIVITY (cpm) MEAN ([1]; 0.002 μG/Ml [c9], exp 1): 71981 cpm
- % VC ([1]; 0.002 μG/Ml [c11], exp 1): 107.5%
- RT ACTIVITY (cpm) MEAN ([1]; 0.002 μG/Ml [c11], exp 1): 71843 cpm
- % VC ([1]; 0.00625 μG/Ml, exp 1): 93.3%
- RT ACTIVITY (cpm) MEAN ([1]; 0.00625 μG/Ml, exp 1): 62338 cpm
- % VC ([1]; 0.0625 μG/Ml, exp 1): 123.3%
- RT ACTIVITY (cpm) MEAN ([1]; 0.0625 μG/Ml, exp 1): 82351 cpm
- % VC ([1]; 0.2 μG/Ml, exp 1): 116.0%
- RT ACTIVITY (cpm) MEAN ([1]; 0.2 μG/Ml, exp 1): 77521 cpm
- % VC ([1]; 0.625 μG/Ml, exp 1): 118.9%
- RT ACTIVITY (cpm) MEAN ([1]; 0.625 μG/Ml, exp 1): 79421 cpm
- % VC ([1]; 2 μG/Ml, exp 1): 114.0%
- RT ACTIVITY (cpm) MEAN ([1]; 2 μG/Ml, exp 1): 76125 cpm
- % VC ([1]; 6.25 μG/Ml, exp 1): 112.7%
- RT ACTIVITY (cpm) MEAN ([1]; 6.25 μG/Ml, exp 1): 75319 cpm
- % VC ([1]; 20 μG/Ml, exp 1): 107.9%
- RT ACTIVITY (cpm) MEAN ([1]; 20 μG/Ml, exp 1): 72063 cpm
- % VC ([1]; 62.5 μG/Ml, exp 1): 3.27%
- RT ACTIVITY (cpm) MEAN ([1]; 62.5 μG/Ml, exp 1): 2186 cpm
- % VC ([1]; 200 μG/Ml, exp 1): 2.23%
- RT ACTIVITY (cpm) MEAN ([1]; 200 μG/Ml, exp 1): 1487 cpm
- IC50 ([1]; ACH2, exp 1, Table 2): IC50 (μG/Ml) = 43.51
- IC50 ([1]; ACH-2, experiment 1, Table 1): 43.5 µg/mL
- IC50 ([1]; ACH-2, experiment 2, Table 1): 8.9 µg/mL
- ACH2 EC50 ([1]; exp 2, Table 4): 8.9 µg/mL
- TOXICITY VALUES (MTS) MEAN (ACH-2 cells; 0.00063 μg/ml, exp 2): 0.975 O, p.
- TOXICITY VALUES (MTS) MEAN (ACH-2 cells; 0.002 μg/ml, exp 2): 0.929 O, p.
- TOXICITY VALUES (MTS) MEAN (ACH-2 cells; 0.00626 μg/ml, exp 2): 0.961 O, p.
- 9′. CC (ACH-2 cells; 0.02 μg/ml, exp 2): 101.1
- TOXICITY VALUES (MTS) MEAN (ACH-2 cells; 0.02 μg/ml, exp 2): 1.006 O, p.
- TOXICITY VALUES (MTS) MEAN (ACH-2 cells; 0.0625 μg/ml, exp 2): 0.894 O, p.
- 9′. CC (ACH-2 cells; 0.2 μg/ml, exp 2): 81.0
- TOXICITY VALUES (MTS) MEAN (ACH-2 cells; 0.2 μg/ml, exp 2): 0.807 O, p.
- 9′. CC (ACH-2 cells; 0.625 μg/ml, exp 2): 72.2
- TOXICITY VALUES (MTS) MEAN (ACH-2 cells; 0.625 μg/ml, exp 2): 0.718 O, p.
- 9′. CC (ACH-2 cells; 2 μg/ml, exp 2): 70.0
- TOXICITY VALUES (MTS) MEAN (ACH-2 cells; 2 μg/ml, exp 2): 0.696 O, p.
- 9′. CC (ACH-2 cells; 6.25 μg/ml, exp 2): 40.1
- TOXICITY VALUES (MTS) MEAN (ACH-2 cells; 6.25 μg/ml, exp 2): 0.399 O, p.
- 9′. CC (ACH-2 cells; 20 μg/ml, exp 2): 0.0
- TOXICITY VALUES (MTS) MEAN (ACH-2 cells; 20 μg/ml, exp 2): 0.000 O, p.
- 9′. CC (ACH-2 cells; 62.5 μg/ml, exp 2): 0.0
- TOXICITY VALUES (MTS) MEAN (ACH-2 cells; 62.5 μg/ml, exp 2): 0.000 O, p.
- 9′. CC (ACH-2 cells; 200 μg/ml, exp 2): 0.0
- TOXICITY VALUES (MTS) MEAN (ACH-2 cells; 200 μg/ml, exp 2): 0.000 O, p.
- TOXICITY VALUES (MTS) MEAN (ACH-2 cells; 0.00063 μG/Ml, exp 1): 1.061 O. D.
- TOXICITY VALUES (MTS) MEAN (ACH-2 cells; 0.002 μG/Ml [c9], exp 1): 1.049 O. D.
- TOXICITY VALUES (MTS) MEAN (ACH-2 cells; 0.002 μG/Ml [c11], exp 1): 1.081 O. D.
- TOXICITY VALUES (MTS) MEAN (ACH-2 cells; 0.00625 μG/Ml, exp 1): 1.019 O. D.
- TOXICITY VALUES (MTS) MEAN (ACH-2 cells; 0.0625 μG/Ml, exp 1): 0.984 O. D.
- TOXICITY VALUES (MTS) MEAN (ACH-2 cells; 0.2 μG/Ml, exp 1): 1.002 O. D.
- TOXICITY VALUES (MTS) MEAN (ACH-2 cells; 0.625 μG/Ml, exp 1): 0.939 O. D.
- % CC (ACH-2 cells; 2 μG/Ml, exp 1): 88.1%
- TOXICITY VALUES (MTS) MEAN (ACH-2 cells; 2 μG/Ml, exp 1): 0.885 O. D.
- % CC (ACH-2 cells; 6.25 μG/Ml, exp 1): 81.8%
- TOXICITY VALUES (MTS) MEAN (ACH-2 cells; 6.25 μG/Ml, exp 1): 0.822 O. D.
- % CC (ACH-2 cells; 20 μG/Ml, exp 1): 85.1%
- TOXICITY VALUES (MTS) MEAN (ACH-2 cells; 20 μG/Ml, exp 1): 0.856 O. D.
- % CC (ACH-2 cells; 62.5 μG/Ml, exp 1): 6.3%
- TOXICITY VALUES (MTS) MEAN (ACH-2 cells; 62.5 μG/Ml, exp 1): 0.063 O. D.
- % CC (ACH-2 cells; 200 μG/Ml, exp 1): 1.3%
- TOXICITY VALUES (MTS) MEAN (ACH-2 cells; 200 μG/Ml, exp 1): 0.013 O. D.
- TC50 (ACH-2 cells; ACH2, exp 1, Table 2): ITC50 (μG/Ml) = 38.94
- TC50 (ACH-2 cells; ACH-2, experiment 1, Table 1): 39
- TC50 (ACH-2 cells; ACH-2, experiment 2, Table 1): 4.8
- ACH2 TC50 (ACH-2 cells; exp 2): 4.8 µg/mL
- ACH2 TC50 (ACH-2 cells; exp 2, listed as COMPOUND Z): TC50 (vg/mol) = 4.84 μg/ml
- inhibition of HIV replication (HIV): failed to inhibit
